A short description of data set [1]: Metabolism studies using human liver microsomal preparations. To be noted: for HLMs t1/2 (min) / half-life: pooled human liver microsomes, with NADPH (CYP system active), 37° C.; for HLMs Predominant Enzyme: comparison of half life with and without NADPH: Esterase, CYP or Mixed; for half-life: pH 7.4, read-out: HLMs t1/2. The format is in vitro ADME. Summed up:
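Pooled human liver microsomes in 50 mM Tris pH 7.4 with 5 mM MgCl2 at 37° C, with or without NADPH-generating system; buffer-only control for stability. Parent loss and acid metabolite formation followed by LC-MS/MS over 0–90 min. Half-life reported with NADPH; comparison with (−)NADPH assigns predominant enzyme.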
On the technique in general: Liver microsomes are a subcellular fraction often used to study metabolism.

The target in the next data set is T1, Full Length hPPARα (Homo sapiens, UniProt Q07869).
T1 construct: Full Length; expressed in transfected cells; host or cells: Cos cells
T1 sequence (Q07869 1-468): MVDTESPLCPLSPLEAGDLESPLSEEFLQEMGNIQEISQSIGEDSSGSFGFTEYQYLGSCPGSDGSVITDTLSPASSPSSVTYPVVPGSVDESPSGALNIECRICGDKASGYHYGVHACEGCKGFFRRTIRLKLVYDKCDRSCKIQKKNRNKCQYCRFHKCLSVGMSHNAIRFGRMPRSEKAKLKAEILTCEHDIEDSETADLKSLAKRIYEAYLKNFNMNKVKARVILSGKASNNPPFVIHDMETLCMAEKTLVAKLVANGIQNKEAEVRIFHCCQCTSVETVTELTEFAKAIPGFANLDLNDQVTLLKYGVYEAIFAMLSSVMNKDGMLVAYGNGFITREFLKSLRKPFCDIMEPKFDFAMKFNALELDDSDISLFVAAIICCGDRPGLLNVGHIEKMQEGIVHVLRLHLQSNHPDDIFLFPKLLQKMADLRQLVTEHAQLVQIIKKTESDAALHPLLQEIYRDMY
The data set can be described thus: Full length hPPARα transfection assay. The format is cell-based. The conditions noted are these: full length receptor; read-out: Full Length hPPAR α EC50 (scaled number). The procedure: (§1) Transient transfection assays. Cos cells were seeded in 60-mm dishes at a density of 5.5×10^5 cells/dish in Dulbecco's modified Eagle's medium (DMEM) supplemented with 10% fetal calf serum (FCS) and incubated at 37° C. for 24 hours before transfection. Cells were transfected in Opti-MEM (Gibco; Invitrogen, Carlsbad, Calif.) without FCS for 3 hours at 37° C., using polyethylenimine, with reporter and expression plasmids. The plasmid pBluescript (Stratagene, La Jolla, Calif.) was used as carrier DNA to set the final amount of DNA to 5.5 μg/dish. The pCMV-b-galactosidase expression plasmid was cotransfected as a control for transfection efficiency. Transfection was stopped by the addition of DMEM supplemented with 10% FCS, and cells were then incubated at 37° C. After 16 hours, cells were trypsinized and seeded in 96-well plates at the density of 2×10^4 cells/well and incubated for 6 hours in 10% FCS-containing DMEM. Cells were then incubated for 24 hours in DMEM containing 0.2% FCS and increasing concentrations of the compound tested or vehicle (DMSO). At the end of the experiment, cells were washed once with ice-cold PBS, lysed and the luciferase and b-galactosidase assays were performed in a luminometer and spectrophotomer. Transfection efficiencies were normalized with the b-galactosidase activity assay. Half-maximal effective concentration (EC50) was estimated using Prism software (GraphPad). All transfection experiments were performed at least three times.
(§2) In the following tables, proprietary compound EC50 values for hPPAR α, β, δ and γ are shown. The EC50 value is the concentration of a drug that induces a response halfway between the baseline and maximum, and is commonly used as a measure of drug potency. EC50 values are reported on a scale of 1 through 5, wherein the value scale is defined for each receptor as follows: […]

Another data set addresses T2, Full Length hPPARγ (Homo sapiens, UniProt P37231).
T2 construct: Full Length; expressed in transfected cells; host or cells: Cos cells
T2 sequence (P37231 1-505): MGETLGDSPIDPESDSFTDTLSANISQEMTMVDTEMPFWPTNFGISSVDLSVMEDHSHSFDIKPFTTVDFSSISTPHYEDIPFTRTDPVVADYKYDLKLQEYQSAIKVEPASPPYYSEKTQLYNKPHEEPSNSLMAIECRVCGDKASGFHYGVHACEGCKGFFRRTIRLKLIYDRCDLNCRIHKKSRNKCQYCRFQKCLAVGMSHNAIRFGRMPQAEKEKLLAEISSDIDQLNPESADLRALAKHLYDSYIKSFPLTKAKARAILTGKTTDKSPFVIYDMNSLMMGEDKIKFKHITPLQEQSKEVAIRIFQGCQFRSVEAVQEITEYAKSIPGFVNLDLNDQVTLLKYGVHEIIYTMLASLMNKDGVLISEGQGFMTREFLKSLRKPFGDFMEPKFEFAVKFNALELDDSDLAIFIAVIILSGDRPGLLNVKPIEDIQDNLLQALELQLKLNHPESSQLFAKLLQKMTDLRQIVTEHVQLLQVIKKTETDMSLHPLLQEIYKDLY
The data set can be described thus: Full length hPPARγ transfection assay. It is filed as cell-based. The conditions noted are these: full length receptor; scale 1-5; read-out: Full Length hPPAR γ EC50 (scaled number). The protocol: as §1, §2

Structures are written as SMILES. Bounds are passed on as bounds.

Regarding `Cc1ccc(Cn2cc(COC(=O)c3ccc(SC(C)(C)C(=O)O)cc3)cn2)cc1` [Compound 3, 2-methyl-2-(4-(((1-(4-methylbenzyl)-1H-pyrazol-4-yl)methoxy)carbonyl)phenylthio)propanoic acid], the “HLMs t1/2 (min)” value in data set [1] is “Stable”. In addition, on Full Length hPPARα, the 50% effective concentration (EC50) (usually the concentration that produces a half-maximal response) is under 1 nM.

As to `CCCc1nn(Cc2ccc(C(F)(F)F)cc2)cc1COC(=O)c1ccc(SC(C)(C)C(=O)O)cc1` [Compound 12, 2-methyl-2-(4-(((3-propyl-1-(4-(trifluoromethyl)benzyl)-1H-pyrazol-4-yl)methoxy)carbonyl)phenylthio)propanoic acid], in data set [1], the “HLMs Predominant Enzyme” value was “Esterase” and the half-life was 1 h.

For `Cc1ccc(Cn2cc(COC(=O)c3ccc(SC(C)(C)C(=O)O)cc3)nn2)cc1` [Compound 60, 2-methyl-2-(4-(((1-(4-methylbenzyl)-1H-1,2,3-triazol-4-yl)methoxy)carbonyl)phenylthio)propanoic acid], in data set [1], the “HLMs Predominant Enzyme” value is on record as “Esterase” and the half-life came out at 1.5 h. For the same compound, the concentration for a half-maximal effect (EC50) at Full Length hPPARα was in the range of 1 to 50 nM.

As for `CC(C)(Sc1ccc(C(=O)OCc2cn(Cc3ccc(C(F)(F)F)cc3)nn2)cc1)C(=O)O` [Compound 67, 2-methyl-2-(4-(((1-(4-(trifluoromethyl)benzyl)-1H-1,2,3-triazol-4-yl)methoxy)carbonyl)phenylthio)propanoic acid], in data set [1], the “HLMs t1/2 (min)” value is “Stable”. Besides, the EC50 at Full Length hPPARα is under 1 nM.

Take `CC(C)(Sc1ccc(C(=O)OCc2cn(Cc3ccc(C(C)(C)C)cc3)nn2)cc1)C(=O)O` [Compound 69, 2-(4-(((1-(4-tert-butylbenzyl)-1H-1,2,3-triazol-4-yl)methoxy)carbonyl)phenylthio)-2-methylpropanoic acid]: in data set [1], the “HLMs Predominant Enzyme” value is “Esterase” and the half-life was 1 h.

For `COC(c1ccc(Cn2cc(COC(=O)c3ccc(SC(C)(C)C(=O)O)cc3)nn2)cc1)(C(F)(F)F)C(F)(F)F` [Compound 75, 2-(4-(((1-(4-(1,1,1,3,3,3-hexafluoro-2-methoxypropan-2-yl)benzyl)-1H-1,2,3-triazol-4-yl)methoxy)carbonyl)phenylthio)-2-methylpropanoic acid], in data set [1], the “HLMs Predominant Enzyme” value is “Esterase” and the half-life came out at 0.417 h.

On to `Cc1ccc(Cn2cc([C@@H](C)OC(=O)c3ccc(SC(C)(C)C(=O)O)cc3)nn2)cc1` [Compound 87, (R)-2-methyl-2-(4-((1-(1-(4-methylbenzyl)-1H-1,2,3-triazol-4-yl)ethoxy)carbonyl)phenylthio)propanoic acid], for which, in data set [1], the “HLMs Predominant Enzyme” value is “Esterase” and the half-life is 2.13 h.

Consider `CC(C)(Sc1ccc(C(=O)OCCc2cn(Cc3ccc(C(F)(F)F)cc3)nn2)cc1)C(=O)O` [Compound 91, 2-methyl-2-(4-((2-(1-(4-(trifluoromethyl)benzyl)-1H-1,2,3-triazol-4-yl)ethoxy)carbonyl)phenylthio)propanoic acid], for which, in data set [1], the “HLMs Predominant Enzyme” value was “Mixed” and the half-life turned out to be 0.917 h.

In the case of `CCCn1c(COC(=O)c2ccc(OC(C)(C)C(=O)O)cc2)nn(Cc2ccc(C(C)(C)C)cc2)c1=O` [Compound 150, 2-(4-(((1-(4-tert-butylbenzyl)-5-oxo-4-propyl-4,5-dihydro-1H-1,2,4-triazol-3-yl)methoxy)carbonyl)phenoxy)-2-methylpropanoic acid], the “HLMs t1/2 (min)” value in data set [1] was “Stable”. Besides, the EC50 at Full Length hPPARα was 1 to 50 nM.

For the compound `CCCCCCn1c(COC(=O)c2ccc(OC(C)(C)C(=O)O)cc2)nn(Cc2ccc(C)cc2)c1=O` [Compound 151, 2-(4-(((4-hexyl-1-(4-methylbenzyl)-5-oxo-4,5-dihydro-1H-1,2,4-triazol-3-yl)methoxy)carbonyl)phenoxy)-2-methylpropanoic acid], in data set [1], the “HLMs Predominant Enzyme” value is given as “Stable” and the “HLMs t1/2 (min)” value is listed as “Stable”. Besides, on Full Length hPPARα, the EC50 was under 1 nM.

Regarding `CCCCCCCCn1c(COC(=O)c2ccc(OC(C)(C)C(=O)O)cc2)nn(Cc2ccc(C)cc2)c1=O` [Compound 152, 2-methyl-2-(4-(((1-(4-methylbenzyl)-4-octyl-5-oxo-4,5-dihydro-1H-1,2,4-triazol-3-yl)methoxy)carbonyl)phenoxy)propanoic acid], in data set [1], the “HLMs Predominant Enzyme” value was “Esterase” and the half-life was determined as 3 h. For the same compound, at Full Length hPPARα, the EC50 is under 1 nM.

Take `CCCn1c(COC(=O)c2ccc(SC(C)(C)C(=O)O)cc2)nn(Cc2ccc(C(C)(C)C)cc2)c1=O` [Compound 159, 2-(4-(((1-(4-tert-butylbenzyl)-5-oxo-4-propyl-4,5-dihydro-1H-1,2,4-triazol-3-yl)methoxy)carbonyl)phenylthio)-2-methylpropanoic acid]: the “HLMs t1/2 (min)” value in data set [1] is “Stable”. On Full Length hPPARα, the EC50 was 1 to 50 nM.

`CCCCCCn1c(COC(=O)c2ccc(SC(C)(C)C(=O)O)cc2)nn(Cc2ccc(C)cc2)c1=O` [Compound 160, 2-(4-(((4-hexyl-1-(4-methylbenzyl)-5-oxo-4,5-dihydro-1H-1,2,4-triazol-3-yl)methoxy)carbonyl)phenylthio)-2-methylpropanoic acid]: the EC50 at Full Length hPPARγ was 201 to 999 nM; on Full Length hPPARα it was under 1 nM. Moreover, the “HLMs t1/2 (min)” value in data set [1] was “Stable”.

As to `CCCCCCCCn1c(COC(=O)c2ccc(SC(C)(C)C(=O)O)cc2)nn(Cc2ccc(C)cc2)c1=O` [Compound 161, 2-methyl-2-(4-(((1-(4-methylbenzyl)-4-octyl-5-oxo-4,5-dihydro-1H-1,2,4-triazol-3-yl)methoxy)carbonyl)phenylthio)propanoic acid], on Full Length hPPARγ, the EC50 is 201 to 999 nM. Further, in data set [1], the “HLMs Predominant Enzyme” value is “Esterase” and the half-life is 0.2 h. In addition, the concentration giving a half-maximal response (EC50) at Full Length hPPARα was under 1 nM.

Take `CCCCCCn1c(COC(=O)c2ccc(OC(C)(C)C(=O)O)cc2)nn(Cc2ccc(C(C)(C)C)cc2)c1=O` [Compound 188, 2-(4-(((1-(4-tert-butylbenzyl)-4-hexyl-5-oxo-4,5-dihydro-1H-1,2,4-triazol-3-yl)methoxy)carbonyl)phenoxy)-2-methylpropanoic acid]: in data set [1], the “HLMs Predominant Enzyme” value was “CYP” and the half-life was over 1.5 h. In addition, the EC50 at Full Length hPPARα was under 1 nM.

Consider `CCCCCCCn1c(COC(=O)c2ccc(OC(C)(C)C(=O)O)cc2)nn(Cc2ccc(C(C)(C)C)cc2)c1=O` [Compound 190, 2-(4-(((1-(4-tert-butylbenzyl)-4-heptyl-5-oxo-4,5-dihydro-1H-1,2,4-triazol-3-yl)methoxy)carbonyl)phenoxy)-2-methylpropanoic acid], for which, in data set [1], the “HLMs Predominant Enzyme” value is reported as “CYP” and the half-life was found to be 0.6 h. Moreover, at Full Length hPPARα, the EC50 was under 1 nM.

In the case of `CCCCCCCn1c(COC(=O)c2ccc(OC(C)(C)C(=O)O)cc2)nn(Cc2ccc(C)cc2)c1=O` [Compound 192, 2-(4-(((4-heptyl-1-(4-methylbenzyl)-5-oxo-4,5-dihydro-1H-1,2,4-triazol-3-yl)methoxy)carbonyl)phenoxy)-2-methylpropanoic acid], in data set [1], the “HLMs Predominant Enzyme” value is given as “Mixed” and the half-life came out at 0.55 h. Besides, the 50% effective concentration (EC50) on Full Length hPPARα was under 1 nM.

Source of the values: patent publication US20100184815A1 (priority 2008, published 2010).
